Patent US20120316065A1, “SURFACTANT BLENDS FOR AUXIN ACTIVITY HERBICIDES” (AKZO NOBEL CHEMICALS INTERNATIONAL B.V., priority 2010, published 2012)

Test system: alfalfa (Medicago sativa)
Test: Greenhouse herbicidal efficacy of 2,4-D amine tank-mixed with adjuvants, post-emergence spray
Assay type: in vivo
Settings: 2,4-D DMA 0.125 lb/A, adjuvant 0.25% wt (0 for None), scale 0% no damage to 100% complete damage
Experimental: The surfactant blends described in Table 1 were applied by the tank mix method together with 2,4-D amine salt (465 g/l). The application rate per ha was 0.1250 lb 2,4-D amine salt ai/A and 0.25% of surfactant blends according to the invention or 0.25% comparative adjuvant Activator 90 (alkylphenol ethoxylate, alcohol ethoxylate and tall oil fatty acid, (Loveland). The herbicidal effect was assessed in a greenhouse environment after 1, 2, 3, and 4 weeks. The test plant used was alfalfa (Medicago sativa).
The plants were sown directly to the pot. When the active ingredient was applied, the plants were 20-30 cm in height. The test containers used were plastic pots containing potting mixture. The solutions were applied by the tank mix method by spray application post-emergence in an automated spray cabinet with a water application rate of 200 liters per hectare. Evaluation was carried out using a scale of from 0% to 100%. 0% means no damage, 100% means complete damage. The results of the assessment are compiled in tables 2 and which follow.

SMILES: O=C(O)COc1ccc(Cl)cc1Cl [2,4-D DMA, 2-(2,4-dichlorophenoxy) acetic acid]
- Alfalfa (1WAT) % control (1 week after treatment): 10.0%
- Alfalfa (2WAT) % control (2 weeks after treatment): 20.0%
- Alfalfa (3WAT) % control (3 weeks after treatment): 20.0%
- Alfalfa (4WAT) % control (4 weeks after treatment): 37.5%
